Among the data in patent US9834571B2, “Compounds for inhibiting cell proliferation in EGFR-driven cancers” (ARIAD Pharmaceuticals, Inc., priority 2012, dated 2017) are IC50 and GI50 values, retold here.

The term IC50 denotes the concentration that inhibits the measured activity by half.

The target of experiment [1] is EGFR L858R (Homo sapiens, UniProt P00533, L858R). In words: Kinase inhibitory activity against EGFR bearing the L858R mutation. It is filed as biochemical. The following applies: EGFR L858R; 10 μM ATP; read-out: IC50 for kinase inhibition, EGFR L858R. A digest of the protocol: (§1)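 Kinase inhibition was measured against native human EGFR and the L858R and L858R/T790M mutants. Compounds were run as 10-point curves in singlicate from a 3 μM top concentration, with 10 μM ATP.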
EGFR L858R, sequence (P00533 25-1210 L858R): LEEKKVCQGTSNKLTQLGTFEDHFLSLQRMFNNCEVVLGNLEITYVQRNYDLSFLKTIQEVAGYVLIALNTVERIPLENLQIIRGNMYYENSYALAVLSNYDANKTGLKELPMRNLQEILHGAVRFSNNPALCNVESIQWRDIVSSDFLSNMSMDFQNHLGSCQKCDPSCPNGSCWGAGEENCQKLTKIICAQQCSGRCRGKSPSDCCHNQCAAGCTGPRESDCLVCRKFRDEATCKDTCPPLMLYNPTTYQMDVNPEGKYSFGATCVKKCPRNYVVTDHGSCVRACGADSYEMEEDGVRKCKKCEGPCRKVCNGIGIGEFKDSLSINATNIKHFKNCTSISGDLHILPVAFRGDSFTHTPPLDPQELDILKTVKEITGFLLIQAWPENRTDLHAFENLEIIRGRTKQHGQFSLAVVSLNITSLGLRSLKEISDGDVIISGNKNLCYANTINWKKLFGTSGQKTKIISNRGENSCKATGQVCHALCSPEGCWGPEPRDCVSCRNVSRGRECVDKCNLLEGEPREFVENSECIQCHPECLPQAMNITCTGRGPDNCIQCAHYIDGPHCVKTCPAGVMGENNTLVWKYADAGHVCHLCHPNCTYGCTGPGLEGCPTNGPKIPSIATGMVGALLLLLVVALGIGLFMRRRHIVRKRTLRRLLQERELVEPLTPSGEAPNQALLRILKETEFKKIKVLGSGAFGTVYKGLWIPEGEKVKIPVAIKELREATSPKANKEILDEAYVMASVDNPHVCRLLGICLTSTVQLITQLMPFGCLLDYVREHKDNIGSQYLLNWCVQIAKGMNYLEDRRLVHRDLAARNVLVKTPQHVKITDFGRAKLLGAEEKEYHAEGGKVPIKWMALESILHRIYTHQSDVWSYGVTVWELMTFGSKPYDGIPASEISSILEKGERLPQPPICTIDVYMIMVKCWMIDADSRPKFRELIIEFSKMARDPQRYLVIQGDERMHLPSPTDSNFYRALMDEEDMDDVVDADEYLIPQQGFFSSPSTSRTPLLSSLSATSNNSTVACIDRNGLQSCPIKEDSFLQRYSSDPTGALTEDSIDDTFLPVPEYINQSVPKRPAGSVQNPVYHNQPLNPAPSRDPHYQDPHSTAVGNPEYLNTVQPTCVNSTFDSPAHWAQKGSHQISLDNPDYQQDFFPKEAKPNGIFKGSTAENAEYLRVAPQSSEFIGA

Experiment [2] concerns the target human EGFR (native sequence) (Homo sapiens, UniProt P00533). Put plainly: Kinase inhibitory activity against human EGFR (native sequence). Type of experiment: biochemical. The following applies: human EGFR native sequence; 10 μM ATP; read-out: IC50 for kinase inhibition, EGFR. In short, it runs like this:
as §1

The test system of experiment [3] is BaF3 cells expressing wildtype EGFR. Put plainly: Antiproliferative activity (MTT) against control BaF3 cells expressing wildtype EGFR. It is filed as cell-based. Conditions: Mus musculus, BAF3 PARENTAL cells (control). A digest of the protocol: (§2)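 Viability by MTT colorimetry. Cells: BaF3 transfected with mutant EGFR, plus a wildtype-EGFR BaF3 counter-screen.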

Experiment [4] deals with T1, BaF3 cells expressing the target EGFR mutations (Homo sapiens, UniProt P00533, T790M, cells depend on it, form not given).
T1 construct: IC50, BAF3 EGFR DEL T790M PURO POOL; other: BAF3 EGFR DEL T790M PURO POOL cells, MTT; other: BAF3 EGFR DEL T790M PURO POOL cells; MTT
T1 sequence (P00533 with tags, fused parts or gaps DEL746-750/T790M, form open): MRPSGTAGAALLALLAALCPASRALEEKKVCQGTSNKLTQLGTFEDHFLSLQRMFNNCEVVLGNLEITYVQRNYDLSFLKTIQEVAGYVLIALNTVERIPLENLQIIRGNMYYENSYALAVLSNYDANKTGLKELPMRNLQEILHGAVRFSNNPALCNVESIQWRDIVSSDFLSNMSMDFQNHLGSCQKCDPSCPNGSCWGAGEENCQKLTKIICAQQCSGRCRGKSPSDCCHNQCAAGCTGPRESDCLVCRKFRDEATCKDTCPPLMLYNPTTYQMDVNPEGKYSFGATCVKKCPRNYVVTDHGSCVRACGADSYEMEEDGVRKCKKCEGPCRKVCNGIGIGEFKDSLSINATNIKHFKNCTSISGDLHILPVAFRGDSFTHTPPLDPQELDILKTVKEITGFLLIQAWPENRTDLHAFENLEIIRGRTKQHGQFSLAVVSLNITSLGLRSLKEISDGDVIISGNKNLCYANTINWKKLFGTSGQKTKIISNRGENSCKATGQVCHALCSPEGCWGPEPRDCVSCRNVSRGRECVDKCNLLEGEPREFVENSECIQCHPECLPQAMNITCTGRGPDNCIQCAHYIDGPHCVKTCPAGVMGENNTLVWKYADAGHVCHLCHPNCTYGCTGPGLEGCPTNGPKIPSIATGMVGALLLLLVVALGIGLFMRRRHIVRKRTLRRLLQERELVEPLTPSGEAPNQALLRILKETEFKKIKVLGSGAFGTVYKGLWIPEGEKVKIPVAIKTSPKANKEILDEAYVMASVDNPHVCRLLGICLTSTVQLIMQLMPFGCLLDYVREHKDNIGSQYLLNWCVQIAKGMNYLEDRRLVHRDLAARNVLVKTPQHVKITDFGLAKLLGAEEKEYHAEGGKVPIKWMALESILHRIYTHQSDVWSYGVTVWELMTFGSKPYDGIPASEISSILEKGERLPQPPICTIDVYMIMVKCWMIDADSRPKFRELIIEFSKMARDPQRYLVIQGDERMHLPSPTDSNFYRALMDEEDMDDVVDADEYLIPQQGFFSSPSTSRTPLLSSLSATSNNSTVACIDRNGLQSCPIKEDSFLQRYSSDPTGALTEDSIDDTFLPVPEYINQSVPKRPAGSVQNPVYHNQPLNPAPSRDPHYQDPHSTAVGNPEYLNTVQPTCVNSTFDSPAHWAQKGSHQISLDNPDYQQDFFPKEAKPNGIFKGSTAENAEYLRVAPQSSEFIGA
In words: Antiproliferative activity (MTT) against BaF3 cells expressing the target EGFR mutations. Type of experiment: cell-based. Conditions: BAF3 EGFR DEL T790M PURO POOL cells, read-out: IC50, BAF3 EGFR DEL T790M PURO POOL. A digest of the protocol: as §2

Experiment [5] has as its target T2, BaF3 cells expressing the target EGFR mutations (Homo sapiens, UniProt P00533, T790M/L858R, cells depend on it).
T2 construct: IC50, BAF3 EGFR L858R-T790M PURO POOL; other: BAF3 EGFR L858R-T790M PURO POOL cells, MTT; IC50, BAF3 EGFR L858R-T790M PURO POOL; other: BAF3 EGFR L858R-T790M PURO POOL cells; MTT
Described as above. It is filed as cell-based. Conditions: BAF3 EGFR L858R-T790M PURO POOL cells, read-out: IC50, BAF3 EGFR L858R-T790M PURO POOL. A digest of the protocol: as §2

Experiment [6] addresses EGFR L858R/T790M (Homo sapiens, UniProt P00533, L858R/T790M). Put plainly: Kinase inhibitory activity against EGFR bearing the L858R/T790M double mutation. The following applies: EGFR L858R/T790M double mutation; 10 μM ATP; read-out: IC50 for kinase inhibition, EGFR L858R T790M. Type of experiment: biochemical. In short, it runs like this: as §1

EGFR L858R/T790M, sequence (P00533 25-1210 T790M/L858R): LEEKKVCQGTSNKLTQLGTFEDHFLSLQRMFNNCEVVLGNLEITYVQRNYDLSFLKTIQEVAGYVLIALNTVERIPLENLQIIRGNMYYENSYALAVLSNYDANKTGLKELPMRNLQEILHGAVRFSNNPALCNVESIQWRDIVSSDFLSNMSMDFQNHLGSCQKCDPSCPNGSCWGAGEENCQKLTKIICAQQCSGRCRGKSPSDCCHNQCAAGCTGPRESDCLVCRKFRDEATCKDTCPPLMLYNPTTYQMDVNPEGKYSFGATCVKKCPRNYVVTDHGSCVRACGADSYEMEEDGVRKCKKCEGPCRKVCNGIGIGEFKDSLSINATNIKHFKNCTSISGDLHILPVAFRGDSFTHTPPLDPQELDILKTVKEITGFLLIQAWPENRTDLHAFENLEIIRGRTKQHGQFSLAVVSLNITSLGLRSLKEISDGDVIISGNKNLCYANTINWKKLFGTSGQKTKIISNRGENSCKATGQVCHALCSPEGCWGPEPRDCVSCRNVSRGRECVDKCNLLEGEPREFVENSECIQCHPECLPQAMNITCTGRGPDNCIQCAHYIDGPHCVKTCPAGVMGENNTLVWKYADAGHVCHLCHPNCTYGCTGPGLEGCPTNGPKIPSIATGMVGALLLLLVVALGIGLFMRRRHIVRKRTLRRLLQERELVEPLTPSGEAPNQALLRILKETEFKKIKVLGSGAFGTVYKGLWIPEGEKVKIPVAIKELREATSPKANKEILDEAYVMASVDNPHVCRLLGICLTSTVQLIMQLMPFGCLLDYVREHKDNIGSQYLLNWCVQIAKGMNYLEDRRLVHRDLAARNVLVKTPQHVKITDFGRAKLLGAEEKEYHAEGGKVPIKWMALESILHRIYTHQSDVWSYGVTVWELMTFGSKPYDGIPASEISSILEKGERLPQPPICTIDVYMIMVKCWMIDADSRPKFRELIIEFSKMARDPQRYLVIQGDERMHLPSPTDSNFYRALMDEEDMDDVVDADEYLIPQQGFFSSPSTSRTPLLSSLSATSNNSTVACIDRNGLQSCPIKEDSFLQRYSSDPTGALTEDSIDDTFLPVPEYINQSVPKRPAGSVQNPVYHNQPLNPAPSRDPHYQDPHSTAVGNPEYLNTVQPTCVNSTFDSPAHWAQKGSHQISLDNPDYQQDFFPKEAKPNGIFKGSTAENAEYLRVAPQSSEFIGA
T2 sequence (P00533 whole entry T790M/L858R): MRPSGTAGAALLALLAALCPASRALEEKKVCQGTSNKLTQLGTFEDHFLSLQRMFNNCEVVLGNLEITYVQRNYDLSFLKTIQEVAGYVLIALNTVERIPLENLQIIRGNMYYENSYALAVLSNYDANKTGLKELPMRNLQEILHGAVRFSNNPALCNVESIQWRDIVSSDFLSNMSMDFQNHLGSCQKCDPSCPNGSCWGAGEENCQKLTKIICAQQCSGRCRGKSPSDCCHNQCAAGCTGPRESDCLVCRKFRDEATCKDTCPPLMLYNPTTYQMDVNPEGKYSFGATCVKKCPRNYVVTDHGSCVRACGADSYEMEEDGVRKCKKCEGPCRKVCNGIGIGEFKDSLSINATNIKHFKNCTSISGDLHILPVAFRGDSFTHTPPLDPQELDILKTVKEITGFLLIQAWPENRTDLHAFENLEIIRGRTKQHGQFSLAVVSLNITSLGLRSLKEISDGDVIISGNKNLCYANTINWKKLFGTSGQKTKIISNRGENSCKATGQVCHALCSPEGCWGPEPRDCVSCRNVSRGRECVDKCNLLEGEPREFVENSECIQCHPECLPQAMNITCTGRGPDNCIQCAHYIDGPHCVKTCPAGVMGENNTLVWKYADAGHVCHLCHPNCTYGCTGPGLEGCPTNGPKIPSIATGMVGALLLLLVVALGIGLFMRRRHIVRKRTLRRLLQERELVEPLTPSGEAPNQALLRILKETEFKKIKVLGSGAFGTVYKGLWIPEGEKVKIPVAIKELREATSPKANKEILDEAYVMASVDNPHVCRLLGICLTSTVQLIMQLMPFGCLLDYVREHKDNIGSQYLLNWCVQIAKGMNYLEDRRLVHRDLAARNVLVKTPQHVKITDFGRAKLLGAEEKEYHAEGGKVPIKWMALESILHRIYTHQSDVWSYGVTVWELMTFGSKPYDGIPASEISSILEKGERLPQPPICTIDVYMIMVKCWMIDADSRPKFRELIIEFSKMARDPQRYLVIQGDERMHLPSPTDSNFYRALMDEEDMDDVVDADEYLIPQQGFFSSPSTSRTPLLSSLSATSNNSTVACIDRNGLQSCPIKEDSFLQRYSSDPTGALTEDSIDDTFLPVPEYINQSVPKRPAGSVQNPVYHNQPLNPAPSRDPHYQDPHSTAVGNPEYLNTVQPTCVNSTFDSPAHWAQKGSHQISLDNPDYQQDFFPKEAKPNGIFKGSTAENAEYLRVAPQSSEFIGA

With `C=CC(=O)Nc1cc(Nc2ncc(Cl)c(Nc3ccccc3P(C)(C)=O)n2)c(OC)cc1N1CC(N2CCCC2)C1` [Example 31, N-(5-((5-chloro-4-((2-(dimethylphosphoryl)phenyl)amino)pyrimidin-2-yl)amino)-4-methoxy-2-(3-(pyrrolidin-1-yl)azetidin-1-yl)phenyl)acrylamide], the IC50 in experiment [1] was less than 50 nM; in experiment [2], less than 50 nM; in experiment [3] it was no less than 250 nM; in experiment [6] it was less than 50 nM. The GI50 in experiment [4] and in experiment [5] was less than 50 nM throughout.
Turning to `C=CC(=O)Nc1cc(Nc2ncc(Cl)c(Nc3ccccc3P(C)(C)=O)n2)c(OC)cc1OC1CCCN(C)C1` (stereo not drawn) [Example 12, N-(5-((5-chloro-4-((2-(dimethylphosphoryl)phenyl)amino)pyrimidin-2-yl)amino)-4-methoxy-2-((1-methylpiperidin-3-yl)oxy)phenyl)acrylamide], the IC50 was less than 50 nM in experiment [1], less than 50 nM in experiment [2], no less than 250 nM in experiment [3] and less than 50 nM in experiment [6]. For the same compound, the GI50 in experiment [4] and in experiment [5] was less than 50 nM in each case.
`C=C(CN1CCC(O)C1)C(=O)Nc1ccc(OC)c(Nc2ncc(Cl)c(Nc3ccccc3P(C)(C)=O)n2)c1` (stereo not drawn) [Example 53, N-(3-((5-chloro-4-((2-(dimethylphosphoryl)phenyl)amino)pyrimidin-2-yl)amino)-4-methoxyphenyl)-2-((3-hydroxypyrrolidin-1-yl)methyl)acrylamide]: the IC50 is less than 50 nM in experiment [1], less than 50 nM in experiment [2], no less than 250 nM in experiment [3] and less than 50 nM in experiment [6]. Besides, the GI50 in experiment [4] and in experiment [5] was less than 50 nM in each case.
`C=C(C(=O)Nc1ccc(OC)c(Nc2ncc(Cl)c(Nc3ccccc3P(C)(C)=O)n2)c1)C(F)(F)F` [Example 82, N-(3-((5-chloro-4-((2-(dimethylphosphoryl)phenyl)amino)pyrimidin-2-yl)amino)-4-methoxyphenyl)-2-(trifluoromethyl)acrylamide]: the half-maximal inhibitory concentration (IC50) in experiment [1] is less than 50 nM; in experiment [2], less than 50 nM; in experiment [3], no less than 250 nM; in experiment [6], less than 50 nM. Besides, the GI50 in experiment [4] and in experiment [5] was no less than 250 nM throughout.
Turning to `C=CC(=O)Nc1cc(Nc2ncc(Cl)c(Nc3ccccc3P(C)(C)=O)n2)c(OC)cc1N1CCC(N2CCCCC2)CC1` [Example 69, N-(2-([1,4′-bipiperidin]-1-yl)-5-((5-chloro-4-((2-(dimethylphosphoryl)phenyl)amino)pyrimidin-2-yl)amino)-4-methoxyphenyl)acrylamide], the IC50 is less than 50 nM in experiment [1], less than 50 nM in experiment [2], no less than 250 nM in experiment [3] and less than 50 nM in experiment [6]. Moreover, the GI50 in experiment [4] and in experiment [5] was less than 50 nM throughout.
As to `COc1ccc(NC(=O)/C=C\C(=O)O)cc1Nc1ncc(Cl)c(Nc2ccccc2P(C)(C)=O)n1` [Example 61, (Z)-4-((3-((5-chloro-4-((2-(dimethylphosphoryl)phenyl)amino)pyrimidin-2-yl)amino)-4-methoxyphenyl)amino)-4-oxobut-2-enoic acid], the IC50 was no less than 250 nM in experiment [1], no less than 250 nM in experiment [2], no less than 250 nM in experiment [3] and 101 to 250 nM in experiment [6]. Besides, the GI50 in experiment [4] and in experiment [5] was no less than 250 nM throughout.
For `C=CC(=O)Nc1cc(Nc2ncc(Cl)c(Nc3ccccc3P(C)(C)=O)n2)c(OC)cc1CN1CCN(C)CC1` [Example 55, N-(5-((5-chloro-4-((2-(dimethylphosphoryl)phenyl)amino)pyrimidin-2-yl)amino)-4-methoxy-2-((4-methylpiperazin-1-yl)methyl)phenyl)acrylamide], the IC50 is less than 50 nM in experiment [1], less than 50 nM in experiment [2], no less than 250 nM in experiment [3] and less than 50 nM in experiment [6]. The GI50 is less than 50 nM in experiment [4] and 50 to 100 nM in experiment [5].
